Holding throughout (type): cell-based
The subject of assay [1] is Ex vivo human skin explant. Put plainly: Cell proliferation (Ki67 staining) in ex vivo human skin explant. As to conditions: 10^−3 M topical, Control 90, Vehicle 45. How it is done: (§1) Ex vivo skin explants were prepared from skin abdominal biopsy after plastic surgery. Skin explants were maintained in culture medium at 37° C. in a water saturated atmosphere for 5 days. Compounds G was diluted in a mixture of propylene glycol (30%) and ethanol (70%) at 10^-3 M and topically applied on the explant surface. After 48 hours, half of the explants were taken and epidermal mRNA was extracted and expression of HB-EGF and IL8 genes was measured by Quantitative real time PCR (QRT-PCR). Explants were also fixed and slices were prepared and mounted on glass slides to be examined. Cell proliferation was also assessed by staining the cells with an antibody directed to the Ki67 protein and then counting the number of positive cell per mm (Table 4).

In assay [2] the test system is IL8. Kind of assay: IL8 gene expression in human squamous carcinoma cells (QRT-PCR). As to conditions: for Effect on IL8 expression (48 h)vs control: vs untreated control.
Assay [3] relates to HB-EGF. Kind of assay: HB-EGF gene expression in human squamous carcinoma cells (QRT-PCR). As to conditions: vs untreated control. As for the experimental part: Compound G was tested on Human Squamous Carcinoma Cells for its ability to induce epidermal proliferation factor HB-EGF. For this assay, Human squamous carcinoma cells were seeded in 25 cm^2 flask and cultivated until 80% of cell confluence was reached. Test compounds were added to the culture medium and cells were incubated again 48 hours. At the end of the incubation cells were trypsinized and pelleted. […] was extracted and gene expression was measured with quantitative real time Polymerase Chain Reaction (QRT-PCR) using actin gene expression as internal standard. Variation of gene expression is expressed in percent versus the untreated control. Effect of Compound G on HB-EGF gene expression, assessed by real time QPCR was +187% and +370% vs. control at doses of 10^−6 and 10^−5 M respectively.

Assay [4] has as its system HB-EGF. Put plainly: HB-EGF gene expression in ex vivo human skin explant (QRT-PCR). How it is done: as §1, with “Compounds G was diluted in a mixture of propylene glycol (30%) and ethanol (70%) at 10^-3 M and topically applied on the explant surface.” left out
Assay [5] deals with IL8. Kind of assay: IL8 gene expression in ex vivo human skin explant (QRT-PCR). As for the experimental part:
as §1, with “Compounds G was diluted in a mixture of propylene glycol (30%) and ethanol (70%) at 10^-3 M and topically applied on the explant surface.” left out

The values below come from patent US7803966B2, “Cosmetic and pharmaceutical compositions comprising compounds that display retinoid like activities” (Johnson & Johnson Consumer France, S.A.S., priority 2007, dated 2010).

As to `O=C(O)COc1ccc(/N=N/c2c(O)ccc3cc(Br)ccc23)cc1` [Compound G], the “Cell proliferation (Ki67 + cells)” value in assay [1] stood at 150 positive cell per mm. Further, the “Effect on IL8 expression (48 h)vs control” value in the assay on IL8 [2] (10^−5 M) is 44%; with IL8 [2] (10^−6 M), 10%. Also, in the assay with IL8 [2] ("at this dose" (10^−6 and 10^−5 M), 48 h), the “IL8 expression induction (in words)” value is listed as “did not significantly induce IL8 expression”. The “Effect on HB EGF expression vs control(48 h)” value in the assay on HB-EGF [3] (10^−5 M) was determined as 370%; in the assay on HB-EGF [3] (10^−5 M, listed as compound G) it was 370%; in the assay on HB-EGF [3] (10^−6 M), 187%; in the assay with HB-EGF [3] (10^−6 M, listed as compound G), 187%. Further, the “Effect on HB EGF expression (48 h) vs vehicle” value in the assay on HB-EGF [4] (10^−3 M topical) was found to be 288%; in the assay with HB-EGF [4] (10^−4 M topical), 159%. Further, the “Effect on IL8 expression (48h)vs vehicle” value was found to be 76% in the assay on IL8 [5] (10^−3 M topical) and 65% in the assay on IL8 [5] (10^−4 M topical).
